Experimental data published in US5646156A, “Inhibition of eosinophil activation through A3 adenosine receptor antagonism” (Merck & Co., Inc., priority 1994, dated 1997).
Several values for one entry are separate records, joined by “and”; a condition that tells them apart may be missing. Identical values can stand only once. Entries after “also recorded” stand apart in the source; their conditions may differ. Like-named read-outs stand apart in the source and are kept apart here.

Key:
[1] = Radioligand binding to membranes from CHO cells (non-transfected / non-specific)
[2] = molecular target: T1, human A3 adenosine receptor (Homo sapiens, UniProt P0DMS8); assay: Inhibition of forskolin-stimulated cAMP accumulation, CHO cells stably expressing HS-21a (human A3 adenosine receptor); type: cell-based
T1 construct: clone HS-21a contained the complete open reading frame corresponding to the human homolog of the rat A3 adenosine receptor; expressed in transfected cells; host or cells: CHO cells, stably transfected (pCMV5-A3; pSVL and pREP vectors are also described)
T1 sequence (P0DMS8 1-318): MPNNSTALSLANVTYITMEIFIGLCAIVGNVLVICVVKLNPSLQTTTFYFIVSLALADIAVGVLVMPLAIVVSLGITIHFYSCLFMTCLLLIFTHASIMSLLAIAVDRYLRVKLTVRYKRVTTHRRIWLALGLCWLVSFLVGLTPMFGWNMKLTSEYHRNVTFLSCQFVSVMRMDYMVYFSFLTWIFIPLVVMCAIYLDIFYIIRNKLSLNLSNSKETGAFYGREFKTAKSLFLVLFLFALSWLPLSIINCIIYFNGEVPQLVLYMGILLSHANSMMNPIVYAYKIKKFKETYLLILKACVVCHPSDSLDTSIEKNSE
Experimental: (§1) Determinations were made on stably transfected CHO cells in suspension as described (Linden et al., (1993) Mol. Pharm. 44:524-532). Supernatants (500 μL) were acetylated and acetylcyclic AMP was measured by automated radioimmunoassay (Hamilton, B. R. and Smith, D. O. (1991) J. Physiol. (Lond.) 432, 327-341). Antagonist dissociation constants were estimated from pA2 values as described by Schild (1957) Pharm. Rev. 9, 242-246).
(§2) The ability of the HS-21a receptor stably expressed in CHO cells to couple to the cAMP regulatory system was measured using adenosine as an agonist. […] In the absence of forskolin, adenosine had no effect on the cAMP levels. In non-transfected CHO cells, adenosine had no effect on cAMP levels when measured with or without forskolin treatment.

[3] = test system: non-transfected CHO cells; assay: cAMP levels in non-transfected CHO cells; type: cell-based; details: with or without forskolin
Experimental: as §1, §2

eosinophils = assay: Induction of eosinophil activation in animals; details: in vivo
asthmatics = details: cited from earlier work; for bronchoconstriction in asthmatics: not nonasthmatics
activated mast cells = details: cited from earlier work
[4] = molecular target: T1, human A3 adenosine receptor; assay: Saturation binding of 125I-ABA to membranes of CHO cells stably expressing HS-21a (human A3 adenosine receptor); details: for prevention of specific binding of 125I-ABA: 1 mM nonradioactive I-ABA (so in the source) or 400 μM NECA
[5] = test system: sheep A3 adenosine receptor; details: CHO cells; cited from earlier work
[6] = test system: rat A3 adenosine receptor; details: reported in literature; cited from earlier work
[7] = test system: human adenosine receptors (all subtypes); details: cited from earlier work
[8] = test system: A3 adenosine receptor transcript, human eosinophils; assay: A3 adenosine receptor transcript expression (RT-PCR) in GM-CSF stimulated eosinophils; type: cell-based; details: GM-CSF (150 pM, 16 hours)
Experimental: (§3) Eosinophils and neutrophils (80-99% purity) were purified from human peripheral blood by an immunomagnetic procedure described by Hansel et al. (1991) J. Immunol. Methods 145: 105-110. Isolated cells (2-2.6×10^6 cells/mL) were cultured in the presence of 150 pM human recombinant granulocyte-macrophage colony stimulating factor, GM-CSF (Calbiochem, San Diego, Calif.) for 16 hours in RPMI with 10% fetal calf serum, at 37° C. in 5% CO2. Total RNA was extracted by the guanidinium isothiocyanate method (Chirgwin, J. M., et al, (1979) Biochemistry 18:5294-5299) from approximately 1.3×10^7 human eosinophils (+) or (-) GM-CSF stimulation. […]
(§4) Human adenosine receptor subtype transcript expression was determined using the polymerase chain reaction (PCR). […]
(§5) Ten μl of each PCR amplification reaction was elecrophoresed on a 1.4% agarose gel and alkaline blotted to Zeta-Probe GT membranes according to the manufacturer's protocol (BIO-RAD, Hercules, Calif.). […] The presence of A2a, A2b and A3 receptor PCR products were detected from normal and GM-CSF treated eosinophils.
(§6) PCR reaction products were quantitated using a Molecular Dynamics Phosphorimager and ImageQuant software. […] Quantitation of GAPDH was used to correct message level differences in the (+) or (-) GM-CSF stimulated human eosinophils. […]

[9] = test system: A2b adenosine receptor transcript, human eosinophils; assay: A2b adenosine receptor transcript expression (RT-PCR) in GM-CSF stimulated eosinophils; type: cell-based; details: GM-CSF (150 pM, 16 hours)
Experimental: as §3, §4, §5, §6

[10] = test system: A2a adenosine receptor transcript, human eosinophils; assay: A2a adenosine receptor transcript expression (RT-PCR) in GM-CSF stimulated eosinophils; type: cell-based
Experimental: as §3, §4, §5, §6

[11] = test system: A1 adenosine receptor transcript, human eosinophils; assay: A1 adenosine receptor transcript expression (RT-PCR) in GM-CSF stimulated eosinophils; type: cell-based
Experimental: as §3, §4, §5, §6

[12] = molecular target: T1, human A3 adenosine receptor; assay: Competition binding vs 125I-ABA, membranes of CHO cells stably expressing HS-21a (human A3 adenosine receptor); details: for Ki: competition with 125I-ABA, CHO membranes, human A3
Experimental: Pellets were resuspended in 5 mM Hepes, pH 7.4/5 mM MgCl2 /0.1 mM benzamidine/0.1 mM PMSF at a protein concentration of 1-2 mg/mL and were incubated with adenosine deaminase (Boehringer Mannheim), 2 U/mL at 37° C. for 20 minutes. […] The assay was terminated by rapid filtration and three washes with ice-cold binding buffer on a Skatron harvester equipped with a receptor binding filtermat (Skatron Instruments, INC). […] Nonspecific binding was measured in the presence of 1 μM I-ABA. […] Binding data were analyzed and competition curves were constructed by use of the nonlinear regression curve fitting program Graph PAD InPlot, Version 3.0 (Graph Pad Software, San Diego).

[13] = molecular target: T1, human A3 adenosine receptor; details: potencies disclosed by Salvatore et al.; cited from earlier work
[14] = molecular target: T1, human A3 adenosine receptor; details: antagonist potency in cAMP assay; disclosed by Salvatore et al.; cited from earlier work
[15] = test system: cytokine activated eosinophils; assay: Treatment of cytokine activated eosinophils (hypersensitivity to adenosine, degranulation, effector function); type: cell-based
[16] = molecular target: sheep A3 adenosine receptor; details: cited from earlier work
[17] = 125I-ABA, HS-21a stable CHO cell membranes

Compound: Nc1ccc(CCNc2ncnc3c2ncn3[C@@H]2O[C@H](CO)[C@@H](O)[C@H]2O)cc1[125I] [^125 I-APNEA, N^6-2-(4-amino-3-^125 iodophenyl)ethyladenosine]
- non-specific binding to CHO cell membranes ([1]; 125I-APNEA, preliminary experiments): high non-specific

Compound: Nc1ncnc2c1ncn2[C@@H]1O[C@H](CO)[C@@H](O)[C@H]1O [adenosine]
- inhibition at 10 µM ([2]; CHO, read-out: inhibition of forskolin-stimulated increase in cAMP): 30%
- effect on cAMP levels in absence of forskolin ([2]; HS-21a CHO cells, no forskolin): no effect
- effect on cAMP levels in non-transfected CHO cells [3]: no effect
- eosinophil activation in animals (eosinophils): induce eosinophil activation
- bronchoconstriction in asthmatics (asthmatics; listed as Adenosine): induces bronchoconstriction in asthmatics but not in normal individuals; also recorded: produces bronchoconstriction in asthmatics but not in nonasthmatics
- bronchoconstriction in asthmatics (asthmatics): produces bronchoconstriction
- release of histamine from activated mast cells (activated mast cells): potentiate

Compound: Nc1ccc(CNc2ncnc3c2ncn3[C@@H]2O[C@H](CO)[C@@H](O)[C@H]2O)cc1I [I-ABA]
- prevention of specific binding of 125I-ABA [4]: prevented
- inhibition of forskolin-stimulated cyclic AMP accumulation compared with NECA and other agonists (PIA and CPA) ([2]; CHO cells, human A3): only about half as much inhibition
- agonist type for lowering cyclic AMP ([2]; CHO cells, human receptor): partial agonist
- shift of NECA dose response curve to lower cyclic AMP ([2]; NECA in presence of I-ABA): fight-shifted
- agonist type for lowering cyclic AMP [5]: full

Compound: CCCn1c(=O)c2[nH]c(C3CCCC3)nc2n(CCC)c1=O [DPCPX, 1,3-dipropyl-8-cyclopentylxanthine]
- binding to rat A3 receptor [6]: not to bind
- blockade of human adenosine receptor subtypes [7]: blocked

Compound: GM-CSF: human recombinant granulocyte-macrophage colony stimulating factor, GM-CSF (Calbiochem, San Diego, Calif.)
- up-regulation of A3 transcripts [8]: ~10 fold
- up-regulation of A2b transcripts [9]: ~3 fold and 3 to 4 fold
- A2a transcript / message level change [10]: no change; also recorded: remained unchanged
- A1 transcript expression [11]: no A1 products were observed; also recorded: remained unchanged

Compound: CCCn1c(=O)c2[nH]c(-c3ccc(OCC(=O)NCCN)cc3)nc2n(CCC)c1=O [XAC, xanthine amine cogener]
- binding to rat A3 receptor [6]: not to bind
- blockade of human adenosine receptor subtypes [7]: blocked

Compound: Nc1nc2c(ncn2[C@@H]2O[C@H](COP(=O)(O)OP(=O)(O)OP(O)(O)=S)[C@@H](O)[C@H]2O)c(=O)[nH]1 [GTPγS, guanosine 5'-O-3-thiotriphosphate]
- inhibition at 10 µM ([4]; read-out: reduction of specific binding of 125I-ABA): 56%

Compound: CCCn1c(=O)c2[nH]c(-c3ccc(C=CC(=O)O)cc3)nc2n(CCC)c1=O [BW-A1433, 1,3-dipropyl-8-(4-acrylate)phenylxanthine]
- Ki [12]: 55 nM
- BINDING pKi [13]: 7.26
- cAMP pKi [14]: 7.0
- blockade of human adenosine receptor subtypes [7]: blocked

Compound: Cn1c(=O)c2[nH]cnc2n(C)c1=O [theophylline]
- antagonism of adenosine-induced bronchoconstriction (asthmatics): antagonized

Compound: Nc1ccc(CNc2ncnc3c2ncn3[C@@H]2O[C@H](CO)[C@@H](O)[C@H]2O)cc1[125I] [^125 I-ABA, N^6-(4-amino-3-^125 iodobenzyl)adenosine]
- Bmax [4, 17]: 258 fmol/mg protein
- Hill coefficient [4, 17]: 0.99
- Kd ([4]; 125I-ABA, HS-21a stable CHO cell membranes, read-out: dissociation constant): 10 nM
- specific binding to non-transfected CHO cell membranes ([1]; 125I-ABA): No specific binding

Compound: CCNC(=O)[C@H]1O[C@@H](n2cnc3c(N)ncnc32)[C@H](O)[C@@H]1O [NECA, N-ethylcarboxamidoadenosine]
- prevention of specific binding of 125I-ABA [4]: prevented

Compound: CCCn1c(=O)c2[nH]c(-c3ccc(OCC(=O)O)cc3)nc2n(Cc2ccc(N)c(I)c2)c1=O [I-ABOPX, 3-(3-iodo-4-aminobenzyl)-8-(4-oxyacetate)phenyl-1-propylxanthine]
- Ki [12]: 18 nM
- affinity for human A3 receptor ([12]; in words): highest affinity antagonist yet reported for A3 adenosine receptors
- hypersensitivity to adenosine, eosinophil degranulation and effector function [15]: blockade of this hypersensitivity and inhibition of eosinophil degranulation and effector function
- cAMP pKi [14]: 8.13
- Ki [16]: 2 nM
